Results published in patent US20250304608A1, “PHOSPHORUS COMPOUND AND USE THEREOF” (SHANGHAI SHIJIANG BIOTECHNOLOGY CO., LTD., priority 2022, published 2025).
Where two headings read alike, the source gives them in different places.

Legend:
ov-NNMT NCI-H82 cell = assay: CellTiter-Glo cell viability inhibition, ov-NNMT NCI-H82 cell; assay type: cell-based; settings: Homo sapiens, NCI-H82 cell overexpressing NNMT protein
Source text: (§1) The expression of NNMT protein in NCI-H82 cell was overexpressed by inserting the NNMT gene into NCI-H82 cell using a viral vector, and the NNMT protein-overexpressing NCI-H82 cell (ov-NNMT NCI-H82 cell) was obtained. The control NCI-H82 cell (Con-NCI-H82 cell) was obtained by transfecting NCI-H82 cell with empty virus vector without carrying NNMT gene. The expressing content of NNMT protein in the Con-NCI-H82 cell and ov-NNMT NCI-H82 cell was detected using Western Blot assay (as shown in FIG. 3), it could be seen from FIG. 3 that the NNMT protein was overexpressed in the ov-NNMT NCI-H82 cell compared with the expression level of NNMT protein in the Con-NCI-H82 cell.

mPTP-inactive Daoy cell = assay: CellTiter-Glo cell viability inhibition, mPTP-inactive Daoy cell; assay type: cell-based; settings: Homo sapiens, Daoy cell transfected with PPIF shRNA vector
Con-NCI-H82 cell = assay: CellTiter-Glo cell viability inhibition, Con-NCI-H82 cell; assay type: cell-based; settings: Homo sapiens, NCI-H82 cell transfected with empty virus vector
Source text: as §1

mPTP-active Daoy cell = assay: CellTiter-Glo cell viability inhibition, mPTP-active Daoy cell; assay type: cell-based; settings: Homo sapiens
[1] = tested on: Daoy cell transfected with virus vector carrying shRNA that induces degradation of PPIF mRNA; assay: TMRM mitochondria membrane potential in Daoy cell transfected with PPIF shRNA; assay type: cell-based, human; settings: H2O2 +, CsA −, untreated = 100
[2] = tested on: Daoy cell transfected with empty virus vector without carrying shRNA; assay: TMRM mitochondria membrane potential in Daoy cell transfected with empty virus vector (Con shRNA); assay type: cell-based, human; settings: H2O2 +, CsA −, untreated = 100
Daoy cell = assay: TMRM mitochondria membrane potential in Daoy cell after CsA / H2O2 treatment; assay type: cell-based, human; settings: untreated = 100
Source text: The mitochondria permeability transition pore (mPTP) was a non-specific channel on the inner membrane of mitochondria, which could allow small molecules with molecular less than 1.5KD to pass freely, and its activity was affected by peroxides (such as H2O2), pH and calcium ions in mitochondria. […] For cells with active mitochondria permeability transition pore, adding peroxide (such as H2O2) could increase the activity of mitochondria permeability transition pore, resulting in a decrease in mitochondna membrane potential.

[3] = Daoy cell transfected with empty virus vector, CellTiter-Glo, read-out: mPTP-active Daoy cell (IC50)

COc1ccc([P+](c2ccc(OC)cc2)(c2ccc(OC)cc2)c2cccc3c2ccn3C)cc1 [AB36411]
IC50 (ov-NNMT NCI-H82 cell): 0.16 µM
IC50 (mPTP-inactive Daoy cell): 680 nM
IC50 (Con-NCI-H82 cell): 0.17 µM
IC50 (mPTP-active Daoy cell; [3]): 0.52 µM

COc1ccc([P+](c2ccc(OC)cc2)(c2cccc3c2ccn3C)c2cccc3c2ccn3C)cc1 [AB36420]
IC50 (ov-NNMT NCI-H82 cell): 0.98 µM
IC50 (mPTP-inactive Daoy cell): 190 nM
IC50 (Con-NCI-H82 cell): 0.14 µM
IC50 (mPTP-active Daoy cell; [3]): 1.09 µM

COc1ccc([P+](c2ccc(OC)cc2)(c2cccc3c2ccn3C)c2cccc3c2cnn3C)cc1 [AB36438]
IC50 (ov-NNMT NCI-H82 cell): 1.53 µM
IC50 (mPTP-inactive Daoy cell): 240 nM
IC50 (Con-NCI-H82 cell): 0.32 µM
IC50 (mPTP-active Daoy cell; [3]): 1.03 µM

COc1ccc([P+](c2ccc(OC)cc2)(c2cccc3c2cnn3C)c2cccc3c2cnn3C)cc1 [AB36439]
IC50 (ov-NNMT NCI-H82 cell): 7.83 µM
IC50 (mPTP-inactive Daoy cell): 1290 nM
IC50 (Con-NCI-H82 cell): 3.07 µM
IC50 (mPTP-active Daoy cell; [3]): 4.36 µM

COc1ccc([P+](c2ccc(OC)cc2)(c2cccc3nn(C)cc23)c2cccc3c2ccn3C)cc1 [AB36444]
IC50 (ov-NNMT NCI-H82 cell): 3.91 µM
IC50 (mPTP-inactive Daoy cell): 550 nM
IC50 (Con-NCI-H82 cell): 0.86 µM
IC50 (mPTP-active Daoy cell; [3]): 1.99 µM

COc1ccc([P+](c2ccc(OC)cc2)(c2cccc3nn(C)cc23)c2cccc3c2cnn3C)cc1 [AB36445]
IC50 (ov-NNMT NCI-H82 cell): 18.3 µM
IC50 (mPTP-inactive Daoy cell): 3020 nM
IC50 (Con-NCI-H82 cell): 6.92 µM
IC50 (mPTP-active Daoy cell; [3]): 13.9 µM

COc1ccc([P+](c2ccc(OC)cc2)(c2ccnc3c2ccn3C)c2ccnc3c2ccn3C)cc1 [AB36448]
IC50 (ov-NNMT NCI-H82 cell): 11.3 µM
IC50 (mPTP-inactive Daoy cell): 2000 nM
IC50 (Con-NCI-H82 cell): 4.23 µM
IC50 (mPTP-active Daoy cell; [3]): 7.24 µM

COc1ccc([P+](c2ccc(OC)cc2)(c2ccnc3c2ccn3C)c2cccc3c2cnn3C)cc1 [AB36449]
IC50 (ov-NNMT NCI-H82 cell): 5.91 µM
IC50 (mPTP-inactive Daoy cell): 570 nM
IC50 (Con-NCI-H82 cell): 1.49 µM
IC50 (mPTP-active Daoy cell; [3]): 2.16 µM

COc1ccc([P+](c2ccc(OC)cc2)(c2cc3cc[nH]c3cn2)c2cccc3[nH]ccc23)cc1 [AB36453]
IC50 (ov-NNMT NCI-H82 cell): 1.62 µM
IC50 (mPTP-inactive Daoy cell): 290 nM
IC50 (Con-NCI-H82 cell): 0.35 µM
IC50 (mPTP-active Daoy cell; [3]): 1.85 µM

COc1ccc([P+](c2ccc(OC)cc2)(c2ccc3[nH]ccc3n2)c2cccc3c2ccn3CCN2CCOCC2)cc1 [AB36459]
IC50 (ov-NNMT NCI-H82 cell): 2.09 µM
IC50 (mPTP-inactive Daoy cell): 320 nM
IC50 (Con-NCI-H82 cell): 0.48 µM
IC50 (mPTP-active Daoy cell; [3]): 1.56 µM

COc1ccc([P+](c2ccc(OC)cc2)(c2cccc3nn(C)cc23)c2cccc3nn(C)cc23)cc1 [AB36471]
IC50 (ov-NNMT NCI-H82 cell): 11 µM
IC50 (mPTP-inactive Daoy cell): 1480 nM
IC50 (Con-NCI-H82 cell): 2.86 µM
IC50 (mPTP-active Daoy cell; [3]): 6.36 µM

COc1ccc([P+](c2ccc(OC)cc2)(c2cccc3[nH]ccc23)c2cccc3[nH]ncc23)cc1 [AB36498]
IC50 (ov-NNMT NCI-H82 cell): 3.43 µM
IC50 (mPTP-inactive Daoy cell): 1320 nM
IC50 (Con-NCI-H82 cell): 1.01 µM
IC50 (mPTP-active Daoy cell; [3]): 6.65 µM

c1ccc([P+](c2ccccc2)(c2ccccc2)c2cccc3[nH]cnc23)cc1 [AB36504]
IC50 (ov-NNMT NCI-H82 cell): 10.7 µM
IC50 (mPTP-inactive Daoy cell): 5120 nM
IC50 (Con-NCI-H82 cell): 3.38 µM
IC50 (mPTP-active Daoy cell; [3]): 25.3 µM

c1ccc([P+](c2ccccc2)(c2ccccc2)c2cccc3cn[nH]c23)cc1 [AB36511]
IC50 (ov-NNMT NCI-H82 cell): 9.74 µM
IC50 (mPTP-inactive Daoy cell): 4030 nM
IC50 (Con-NCI-H82 cell): 3.32 µM
IC50 (mPTP-active Daoy cell; [3]): 13.4 µM

COc1ccc([P+](c2ccccc2)(c2ccccc2)c2cccc3[nH]ccc23)cc1 [AB36513]
IC50 (ov-NNMT NCI-H82 cell): 0.86 µM
IC50 (mPTP-inactive Daoy cell): 380 nM
IC50 (Con-NCI-H82 cell): 0.11 µM
IC50 (mPTP-active Daoy cell; [3]): 1.96 µM

c1ccc([P+](c2ccccc2)(c2cccc3[nH]ccc23)c2cccc3cn[nH]c23)cc1 [AB36514]
IC50 (ov-NNMT NCI-H82 cell): 1.35 µM
IC50 (mPTP-inactive Daoy cell): 1190 nM
IC50 (Con-NCI-H82 cell): 0.26 µM
IC50 (mPTP-active Daoy cell; [3]): 10.2 µM

COc1ccc([P+](c2ccc(OC)cc2)(c2cccc3[nH]ncc23)c2cccc3[nH]ncc23)cc1 [AB36516]
IC50 (ov-NNMT NCI-H82 cell): 17.9 µM
IC50 (mPTP-inactive Daoy cell): 9580 nM
IC50 (Con-NCI-H82 cell): 6.47 µM
IC50 (mPTP-active Daoy cell; [3]): 33.1 µM

c1ccc([P+](c2ccccc2)(c2ccccc2)c2cccc3occc23)cc1 [AB36521]
IC50 (ov-NNMT NCI-H82 cell): 1.92 µM
IC50 (mPTP-inactive Daoy cell): 750 nM
IC50 (Con-NCI-H82 cell): 0.47 µM
IC50 (mPTP-active Daoy cell; [3]): 2.45 µM

c1ccc([P+](c2ccccc2)(c2ccccc2)c2ccoc2)cc1 [AB36533]
IC50 (ov-NNMT NCI-H82 cell): 8.97 µM
IC50 (mPTP-inactive Daoy cell): 3520 nM
IC50 (Con-NCI-H82 cell): 3.09 µM
IC50 (mPTP-active Daoy cell; [3]): 11.9 µM

c1ccc([P+](c2ccccc2)(c2ccccc2)c2cccc3scnc23)cc1 [AB36534]
IC50 (ov-NNMT NCI-H82 cell): 5.11 µM
IC50 (mPTP-inactive Daoy cell): 1210 nM
IC50 (Con-NCI-H82 cell): 1.35 µM
IC50 (mPTP-active Daoy cell; [3]): 3.66 µM

c1ccc([P+](c2ccccc2)(c2ccccc2)c2cccc3sccc23)cc1 [AB36535]
IC50 (ov-NNMT NCI-H82 cell): 2.32 µM
IC50 (mPTP-inactive Daoy cell): 370 nM
IC50 (Con-NCI-H82 cell): 0.46 µM
IC50 (mPTP-active Daoy cell; [3]): 1.56 µM

c1ccc([P+](c2ccccc2)(c2ccccc2)c2cccc3ccoc23)cc1 [AB36536]
IC50 (ov-NNMT NCI-H82 cell): 1.89 µM
IC50 (mPTP-inactive Daoy cell): 310 nM
IC50 (Con-NCI-H82 cell): 0.56 µM
IC50 (mPTP-active Daoy cell; [3]): 1.39 µM

c1ccc([P+](c2ccccc2)(c2ccccc2)c2cscn2)cc1 [AB36537]
IC50 (ov-NNMT NCI-H82 cell): 8.16 µM
IC50 (mPTP-inactive Daoy cell): 3550 nM
IC50 (Con-NCI-H82 cell): 3.97 µM
IC50 (mPTP-active Daoy cell; [3]): 14.4 µM

Brc1c(C[P+](c2ccccc2)(c2ccccc2)c2ccccc2)[nH]c2ccccc12 [AB36542]
IC50 (ov-NNMT NCI-H82 cell): 9.22 µM
IC50 (mPTP-inactive Daoy cell): 3680 nM
IC50 (Con-NCI-H82 cell): 3.25 µM
IC50 (mPTP-active Daoy cell; [3]): 8.37 µM

C1=C([P+](c2ccccc2)(c2ccccc2)c2ccccc2)CCOC1 [AB36546]
IC50 (ov-NNMT NCI-H82 cell): 10.5 µM
IC50 (mPTP-inactive Daoy cell): 7280 nM
IC50 (Con-NCI-H82 cell): 4.72 µM
IC50 (mPTP-active Daoy cell; [3]): 35.1 µM

OO [Compound H2O2, H2O2]
Relative TMRM signal intensity (%), mean value [1]: 95%
Relative TMRM signal intensity (%), mean value [2]: 79%
Relative TMRM signal intensity (%) in Daoy cell, mean value (Daoy cell): 82%

C(=C\C[P+](c1ccccc1)(c1ccccc1)c1ccccc1)/C[P+](c1ccccc1)(c1ccccc1)c1ccccc1 [SJ00001]
IC50 (ov-NNMT NCI-H82 cell): 0.79 µM
IC50 (mPTP-inactive Daoy cell): 3440 nM
IC50 (Con-NCI-H82 cell): 0.68 µM
IC50 (mPTP-active Daoy cell; [3]): 3.71 µM

c1ccc(P(=[N+]=P(c2ccccc2)(c2ccccc2)c2ccccc2)(c2ccccc2)c2ccccc2)cc1 [SJ00002]
IC50 (ov-NNMT NCI-H82 cell): 0.21 µM
IC50 (mPTP-inactive Daoy cell): 460 nM
IC50 (Con-NCI-H82 cell): 0.18 µM
IC50 (mPTP-active Daoy cell; [3]): 0.44 µM

c1ccc([P+](CC[P+](c2ccccc2)(c2ccccc2)c2ccccc2)(c2ccccc2)c2ccccc2)cc1 [SJ00003]
IC50 (ov-NNMT NCI-H82 cell): 2.98 µM
IC50 (mPTP-inactive Daoy cell): 5180 nM
IC50 (Con-NCI-H82 cell): 3.24 µM
IC50 (mPTP-active Daoy cell; [3]): 4.91 µM

[C-]#[N+]N=P(c1ccccc1)(c1ccccc1)c1ccccc1 [SJ00004]
IC50 (ov-NNMT NCI-H82 cell): 5.32 µM
IC50 (mPTP-inactive Daoy cell): 7990 nM
IC50 (Con-NCI-H82 cell): 5.51 µM
IC50 (mPTP-active Daoy cell; [3]): 9.01 µM

CCCCCCCCCCCC[P+](c1ccccc1)(c1ccccc1)c1ccccc1 [SJ00005]
IC50 (ov-NNMT NCI-H82 cell): 0.17 µM
IC50 (mPTP-inactive Daoy cell): 330 nM
IC50 (Con-NCI-H82 cell): 0.19 µM
IC50 (mPTP-active Daoy cell; Daoy, read-out: mPTP-active Daoy cell (IC50, μM)): 0.32 µM

CCCCCCCCCCCCCC[P+](c1ccccc1)(c1ccccc1)c1ccccc1 [SJ00006]
IC50 (ov-NNMT NCI-H82 cell): 0.14 µM
IC50 (mPTP-inactive Daoy cell): 340 nM
IC50 (Con-NCI-H82 cell): 0.13 µM
IC50 (mPTP-active Daoy cell; [3]): 0.29 µM
